Results: patent publication US20120184594A1, “PHENYLPYRROLIDINE COMPOUNDS” (Ferrer Internacional S.A., priority 2007, published 2012)

How the values were obtained:
[1] = molecular target: T1, recombinant human MT1 receptor (Homo sapiens, UniProt P48039); assay: Agonist activity on MT1 receptors (aequorin luminescence, Gα16 co-expressing cell line); format: cell-based; conditions: percentage activity with respect to the reference agonist at its EC100; for MT1 agonism 1 nM: compound at 1 nM; for MT1 agonism 100 nM: compound at 100 nM, in %
T1 construct: expressed in transfected cells; host or cells: unnamed cell line co-expressing mitochondrial apoaequorin and the Gα16 subunit
T1 sequence (P48039 whole entry): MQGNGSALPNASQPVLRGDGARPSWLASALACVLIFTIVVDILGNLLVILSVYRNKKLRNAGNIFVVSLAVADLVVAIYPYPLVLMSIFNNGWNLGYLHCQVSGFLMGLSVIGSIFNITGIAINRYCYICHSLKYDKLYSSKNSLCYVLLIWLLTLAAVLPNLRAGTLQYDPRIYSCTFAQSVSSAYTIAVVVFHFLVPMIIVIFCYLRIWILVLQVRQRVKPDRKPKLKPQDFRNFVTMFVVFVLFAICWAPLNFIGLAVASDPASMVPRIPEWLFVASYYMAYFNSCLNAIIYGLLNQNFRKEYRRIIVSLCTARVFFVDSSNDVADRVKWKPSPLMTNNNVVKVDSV
From the text: Determination of the agonist activity on MT1 receptors
In order to screen compounds for the MT1 receptor a cell line is used that is characterised by stable overexpression of the recombinant human MT1 receptor in a cell line that in turn co-expresses mitochondrial apoaequorin and the Gα16 subunit.
The Gα16 subunit belongs to the G protein family, formed by GPCR, wherein the transduction of intracellular signals occurs via phospholipase (PLC). PLC activation produces an increase in inositol-triphosphate levels that leads to an increase in intracellular calcium. Gα16 overexpression thus allows an increase in intracellular calcium levels that is independent and compatible with the study receptor's own signal transduction pathway.
Following its binding to calcium, the aequorin oxidises coelenterazine to coelenteramide, a reaction that releases CO2 and light.
The trial protocol for the screening of possible agonists consists in collecting the cells and keeping them in suspension overnight in the presence of coelenterazine in order to reconstitute aequorin. On the following day the cells are injected on a plate where the compounds to be screened are diluted, and the luminescence released is read immediately. When wishing to study the possible antagonism of the same compounds, the reference agonist compound is added in the same well after 15-30 min from the first injection and the luminescence released is assessed.
Agonist activity is calculated as percentage activity with respect to the reference agonist at the concentration corresponding to its EC100. Antagonist activity is expressed as percentage inhibition over the reference agonist activity at the concentration corresponding to its EC80.

[2] = Rat plasma levels and brain/plasma ratio after administration; format: in vivo; conditions: 15 min after administration of 1 mg/Kg; for concentration at 15 min: plasma
From the text: (§1) Moreover, the compounds of the present invention advantageously provide relevant pharmacokinetic improvements.

[3] = Metabolic stability by incubation in human microsomes; format: in vitro ADME; conditions: disappearance of compound, 120 min, 1 μM
From the text: as §1

[4] = background statement; cited from earlier work

| MT1 agonism 1 nM [1] [%] | MT1 agonism 100 nM [1] | Kp at 0.25 h ([2]; brain/plasma) | concentration at 15 min [2] [ng/mL] | metabolic stability [3] | Molecule | clearance [4] [%] |
| --- | --- | --- | --- | --- | --- | --- |
| 51.8 | 100.5 | – | – | – | COc1ccc2[nH]cc(CCNC(C)=O)c2c1 [Melatonin, reference compound] | – |
| 34.4 | 102.7 | – | – | – | COc1cccc(N2CC[C@H](NC(C)=O)C2)c1 [Example 4, (S)—N-[1-(3-methoxy-phenyl)-pyrrolidin-3-yl]-acetamide] | – |
| 46.7 | 109.9 | – | – | – | CCC(=O)N[C@H]1CCN(c2cccc(OC)c2)C1 [Example 3, (S)—N-[1-(3-methoxy-phenyl)-pyrrolidin-3-yl]-propionamide] | – |
| 50.1 | 110.3 | 1 | 15.1 | – | COc1cccc(N2CC[C@H](NC(=O)CC(C)C)C2)c1 [Example 8, (S)—N-[1-(3-methoxy-phenyl)-pyrrolidin-3-yl]-3-methyl-butyramide] | – |

Continued, molecule first:

| Molecule | MT1 agonism 1 nM [1] [%] | MT1 agonism 100 nM [1] | Kp at 0.25 h ([2]; brain/plasma) | concentration at 15 min [2] [ng/mL] | metabolic stability [3] | clearance [4] [%] |
| --- | --- | --- | --- | --- | --- | --- |
| (S)-[1-(3-methoxy-phenyl)-pyrrolidin-3-yl]-butyramide [Example 7] | 33.4 | 99.6 | – | – | – | – |
| CCC(=O)NCC[C@@H]1CCc2ccc(OC)cc21 [(1S)—N-[2-(6-methoxy-indan-1-yl)ethyl]-propionamide, reference compound] | – | – | – | 10.1 | less than 30% | – |
| CCC(=O)NCC[C@@H]1CCc2ccc3c(c21)CCO3 [Ramelteon, N-[2-[(8S)-1,6,7,8-tetrahydro-2H-indeno[5,4-b]furan-8-yl)ethyl]propionamide, reference compound] | 50 | 117.5 | – | – | – | 88 |
